Measurements: ChEMBL document CHEMBL1201862, “PubChem BioAssay data set” (2004)
Activity calls are given as the source filed them.

Key:
Cytochrome P450 2C9 [1] = target: T1, Cytochrome P450 2C9 (Homo sapiens, UniProt P11712)
Cytochrome P450 3A4 = Cytochrome P450 3A4 (Homo sapiens, UniProt P08684);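 also: CYP3A4 tested as one member of a cytochrome P450 panel screen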
[2] = system: Streptococcus sp. 'group A'; test: Streptococcus pyogenes SK(-)GAS viability under kanamycin – luminescence, BacTiterGlo, confirmation, counter-screen for streptokinase expression inhibitor project, dose response (AID 1900); type: functional, organism-based
[3] = target: FAD-linked sulfhydryl oxidase ALR (Homo sapiens, UniProt P55789); test: ALR-catalysed DTT oxidation blockers – biochemical, H2O2 detection, luminescence, cherry-pick, dose response (AID 493248)
FAD-linked sulfhydryl oxidase ALR, sequence (P55789 whole entry): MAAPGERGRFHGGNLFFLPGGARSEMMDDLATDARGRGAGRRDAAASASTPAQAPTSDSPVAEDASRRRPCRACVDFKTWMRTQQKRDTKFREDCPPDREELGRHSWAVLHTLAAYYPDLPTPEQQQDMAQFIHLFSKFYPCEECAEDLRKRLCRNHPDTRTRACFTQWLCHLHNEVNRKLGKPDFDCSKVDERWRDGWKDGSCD

[4] = target: Dual specificity protein kinase CLK1 (Homo sapiens, UniProt P49759); test: inhibition of human CLK1 activity – biochemical, cherry-picked samples, selectivity assay for Dyrk1A inhibitor project, dose response (AID 588811)
Dual specificity protein kinase CLK1, sequence (P49759 whole entry): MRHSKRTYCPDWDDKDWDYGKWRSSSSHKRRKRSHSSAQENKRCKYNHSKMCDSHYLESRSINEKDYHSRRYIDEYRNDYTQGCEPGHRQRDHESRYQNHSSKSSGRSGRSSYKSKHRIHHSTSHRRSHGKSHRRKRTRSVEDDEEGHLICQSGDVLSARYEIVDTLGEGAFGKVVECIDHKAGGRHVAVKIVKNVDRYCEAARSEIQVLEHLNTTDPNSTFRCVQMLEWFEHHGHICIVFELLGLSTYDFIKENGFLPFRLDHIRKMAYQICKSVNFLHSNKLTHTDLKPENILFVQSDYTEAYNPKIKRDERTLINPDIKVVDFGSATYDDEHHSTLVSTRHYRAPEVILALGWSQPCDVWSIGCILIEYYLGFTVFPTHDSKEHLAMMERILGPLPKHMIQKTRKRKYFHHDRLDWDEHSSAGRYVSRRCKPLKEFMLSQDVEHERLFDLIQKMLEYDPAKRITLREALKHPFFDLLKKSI

Streptococcus = test: GAS UMAA2166 growth inhibition – luminescence, BacTiterGlo, counter-screen for streptokinase expression inhibitor project, dose response (AID 1915); type: functional, organism-based;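 also: potency for reduction of bacterial viability or growth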
[5] = target: Dual specificity tyrosine-phosphorylation-regulated kinase 1A (Rattus norvegicus, UniProt Q63470); type: biochemical, Homo sapiens
[6] = target: T2, Endoribonuclease toxin MazF (Escherichia coli K-12, UniProt P0AE70); test: substrate-only fluorescence increase artefacts – biochemical, single-stranded RNase substrate, counter-screen for MazEF activator project, dose response (AID 588502); type: functional
T2 sequence (P0AE70 whole entry): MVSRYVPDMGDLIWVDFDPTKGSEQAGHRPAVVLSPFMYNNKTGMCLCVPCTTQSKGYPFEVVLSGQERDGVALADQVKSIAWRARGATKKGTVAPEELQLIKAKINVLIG

[7] = alpha-synuclein stem-loop luciferase translation blockers – H4 neuroglioma cells, luminescence, confirmation (AID 1988); type: functional, cell-based
[8] = Luminescence Cell-Based Dose Response HTS to Identify Inhibitors of 5'UTR Stem-Loop Driven Prion Protein mRNA Translation in H4 Neuroglioblastoma Cells. [Related pubchem assays: 1827 (Project Summary), 1813 (Primary HTS)]; type: functional
[9] = target: T3, RNA-binding protein pos-1 (Caenorhabditis elegans, UniProt G5EF15); test: disruptors of C. elegans POS-1 RNA interaction – biochemical, fluorescence polarization, dose response (AID 1964);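 also: purified POS-1 fused to maltose binding protein made in E. coli; potency of compounds blocking POS-1 binding to fluorescent RNA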
T3 sequence (G5EF15 whole entry): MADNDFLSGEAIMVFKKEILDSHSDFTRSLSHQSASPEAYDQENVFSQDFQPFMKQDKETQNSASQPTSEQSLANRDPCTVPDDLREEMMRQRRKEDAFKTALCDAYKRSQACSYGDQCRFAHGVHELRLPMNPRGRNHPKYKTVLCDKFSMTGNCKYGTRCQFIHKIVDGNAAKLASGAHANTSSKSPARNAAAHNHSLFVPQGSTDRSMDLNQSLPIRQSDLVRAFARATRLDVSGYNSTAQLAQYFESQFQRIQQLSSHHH

[10] = target: T4, Zinc finger protein mex-5 (Caenorhabditis elegans, UniProt Q9XUB2); test: potency of MEX-5 RNA-binding blockers – biochemical, C. elegans, fluorescence polarization, dose response (AID 1960)
T4 sequence (Q9XUB2 whole entry): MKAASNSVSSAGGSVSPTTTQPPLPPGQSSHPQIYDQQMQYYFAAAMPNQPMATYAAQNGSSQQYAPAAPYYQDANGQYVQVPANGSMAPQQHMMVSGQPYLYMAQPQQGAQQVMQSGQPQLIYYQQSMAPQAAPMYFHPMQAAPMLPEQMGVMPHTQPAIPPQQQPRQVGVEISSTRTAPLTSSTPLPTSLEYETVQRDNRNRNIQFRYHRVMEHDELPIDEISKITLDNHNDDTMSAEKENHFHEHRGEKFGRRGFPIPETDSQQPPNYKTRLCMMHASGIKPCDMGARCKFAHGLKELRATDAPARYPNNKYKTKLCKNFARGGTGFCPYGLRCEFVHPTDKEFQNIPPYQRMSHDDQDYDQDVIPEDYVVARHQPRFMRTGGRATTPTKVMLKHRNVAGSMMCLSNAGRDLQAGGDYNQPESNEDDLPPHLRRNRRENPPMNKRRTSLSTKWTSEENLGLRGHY

[11] = target: T2, Endoribonuclease toxin MazF; test: activation of MazEF endoribonuclease cleavage – biochemical, fluorescence, single-stranded RNA substrate, uHTS hits, dose response (AID 588481); type: functional
[12] = luciferase reporter signal suppression in cells – H4 neuroglioma cells, luminescence, dose response (AID 1990); type: functional, cell-based
Cytochrome P450 2C9 [13] = target: T1, Cytochrome P450 2C9; remark: listed apart in the source
Cytochrome P450 2C19 = Cytochrome P450 2C19 (Homo sapiens, UniProt P33261); test: Cytochrome panel assay with activity outcomes. Panel member name: p450-cyp2c19 Compounds with AC50 equal or less than 10 uM are considered active; type: functional; settings: read-out: AC50
Cytochrome P450 2C19, sequence (P33261 whole entry): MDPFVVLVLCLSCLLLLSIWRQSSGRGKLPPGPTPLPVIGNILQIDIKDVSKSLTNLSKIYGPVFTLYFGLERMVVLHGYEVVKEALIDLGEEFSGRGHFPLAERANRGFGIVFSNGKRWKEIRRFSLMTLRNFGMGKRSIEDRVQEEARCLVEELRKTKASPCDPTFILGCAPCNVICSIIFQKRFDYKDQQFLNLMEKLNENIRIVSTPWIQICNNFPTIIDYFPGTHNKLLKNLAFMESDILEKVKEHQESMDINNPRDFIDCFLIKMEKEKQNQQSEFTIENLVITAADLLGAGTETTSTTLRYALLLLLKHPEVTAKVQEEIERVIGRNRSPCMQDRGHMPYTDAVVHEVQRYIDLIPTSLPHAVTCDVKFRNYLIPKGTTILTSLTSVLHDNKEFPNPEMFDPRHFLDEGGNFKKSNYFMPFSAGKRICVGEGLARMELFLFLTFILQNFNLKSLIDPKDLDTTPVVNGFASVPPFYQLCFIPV

[14] = target: T5, Nuclear receptor subfamily 0 group B member 1 (Homo sapiens, UniProt P51843); test: Luminescence-based cell-based high throughput dose response assay for inhibitors of the orphan nuclear receptor subfamily 0, group B, member 1 (DAX1; NR0B1). [Related pubchem assays (depositor defined):AID504766, AID504790]; type: functional
T5 sequence (P51843 whole entry): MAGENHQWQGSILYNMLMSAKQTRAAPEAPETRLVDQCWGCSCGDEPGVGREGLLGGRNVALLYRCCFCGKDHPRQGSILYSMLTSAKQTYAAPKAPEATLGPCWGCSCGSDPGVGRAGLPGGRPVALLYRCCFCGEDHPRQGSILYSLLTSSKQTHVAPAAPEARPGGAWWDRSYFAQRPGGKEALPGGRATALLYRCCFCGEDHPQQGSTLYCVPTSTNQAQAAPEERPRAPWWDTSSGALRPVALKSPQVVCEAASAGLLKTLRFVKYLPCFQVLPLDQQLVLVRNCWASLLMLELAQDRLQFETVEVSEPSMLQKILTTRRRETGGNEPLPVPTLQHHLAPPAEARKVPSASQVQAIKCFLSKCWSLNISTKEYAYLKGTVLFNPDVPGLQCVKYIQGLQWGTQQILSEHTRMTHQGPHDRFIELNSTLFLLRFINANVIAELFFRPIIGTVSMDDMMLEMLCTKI

HEK293 = test: cells; type: functional, cell-based; settings: Homo sapiens
Protein RecA = target: T6, Protein RecA (Mycobacterium tuberculosis, UniProt P9WHJ3); test: Fluorescence Cell-Free Homogeneous Dose Retest to Identify Inhibitors of RecA-Intein Splicing Activity. [Related pubchem assays (depositor defined):AID2097, AID2223, AID489010, AID492950]; type: functional
T6 sequence (P9WHJ3 whole entry): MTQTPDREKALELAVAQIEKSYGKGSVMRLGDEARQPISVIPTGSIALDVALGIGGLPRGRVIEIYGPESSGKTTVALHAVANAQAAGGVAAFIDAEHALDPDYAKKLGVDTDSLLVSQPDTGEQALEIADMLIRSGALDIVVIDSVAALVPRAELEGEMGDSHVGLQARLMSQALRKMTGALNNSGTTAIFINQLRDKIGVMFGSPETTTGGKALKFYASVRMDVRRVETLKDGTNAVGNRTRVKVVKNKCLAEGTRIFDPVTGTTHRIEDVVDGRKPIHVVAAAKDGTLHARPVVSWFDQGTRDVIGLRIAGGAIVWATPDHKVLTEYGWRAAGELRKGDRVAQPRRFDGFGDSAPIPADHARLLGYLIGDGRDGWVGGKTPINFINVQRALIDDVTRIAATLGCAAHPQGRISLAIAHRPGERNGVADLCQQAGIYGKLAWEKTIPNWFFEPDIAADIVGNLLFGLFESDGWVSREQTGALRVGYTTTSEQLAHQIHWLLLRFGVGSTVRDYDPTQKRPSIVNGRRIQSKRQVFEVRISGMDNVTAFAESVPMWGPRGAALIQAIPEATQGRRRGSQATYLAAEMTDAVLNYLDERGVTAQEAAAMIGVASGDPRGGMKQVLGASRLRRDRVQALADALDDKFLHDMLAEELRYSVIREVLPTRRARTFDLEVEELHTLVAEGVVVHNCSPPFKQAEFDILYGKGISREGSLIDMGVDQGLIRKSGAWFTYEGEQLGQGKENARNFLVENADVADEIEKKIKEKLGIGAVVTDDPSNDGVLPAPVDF

[15] = target: T7, Sentrin-specific protease 8 (Homo sapiens, UniProt Q96LD8); type: functional
T7 sequence (Q96LD8 whole entry): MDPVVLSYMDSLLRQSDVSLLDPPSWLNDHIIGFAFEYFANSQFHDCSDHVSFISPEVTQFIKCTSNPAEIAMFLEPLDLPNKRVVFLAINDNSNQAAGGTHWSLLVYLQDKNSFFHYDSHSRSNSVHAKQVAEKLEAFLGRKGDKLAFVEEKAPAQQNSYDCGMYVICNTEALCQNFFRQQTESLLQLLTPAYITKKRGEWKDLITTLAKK

SUMO E1/E2 = SUMO E1/E2 (Homo sapiens, UniProt P63279+Q9UBE0+Q9UBT2); test: SAR analysis of SUMOylation using HTRF in an in-Vitro dose response assay. [Related pubchem assays (depositor defined):AID2006, AID2011, AID2018, AID2069, AID2658]; type: functional
SUMO E1/E2, sequence (Q9UBE0 whole entry): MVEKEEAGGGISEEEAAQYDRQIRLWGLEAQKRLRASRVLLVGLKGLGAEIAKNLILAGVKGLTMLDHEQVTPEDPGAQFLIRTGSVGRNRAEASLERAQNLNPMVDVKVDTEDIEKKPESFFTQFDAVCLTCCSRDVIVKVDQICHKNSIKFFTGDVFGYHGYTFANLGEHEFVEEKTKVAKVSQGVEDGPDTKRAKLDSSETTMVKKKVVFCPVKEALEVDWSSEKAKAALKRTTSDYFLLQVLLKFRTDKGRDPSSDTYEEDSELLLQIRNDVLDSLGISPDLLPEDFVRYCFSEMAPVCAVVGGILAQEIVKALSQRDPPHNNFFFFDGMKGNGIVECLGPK
SUMO E1/E2, sequence (Q9UBT2 whole entry): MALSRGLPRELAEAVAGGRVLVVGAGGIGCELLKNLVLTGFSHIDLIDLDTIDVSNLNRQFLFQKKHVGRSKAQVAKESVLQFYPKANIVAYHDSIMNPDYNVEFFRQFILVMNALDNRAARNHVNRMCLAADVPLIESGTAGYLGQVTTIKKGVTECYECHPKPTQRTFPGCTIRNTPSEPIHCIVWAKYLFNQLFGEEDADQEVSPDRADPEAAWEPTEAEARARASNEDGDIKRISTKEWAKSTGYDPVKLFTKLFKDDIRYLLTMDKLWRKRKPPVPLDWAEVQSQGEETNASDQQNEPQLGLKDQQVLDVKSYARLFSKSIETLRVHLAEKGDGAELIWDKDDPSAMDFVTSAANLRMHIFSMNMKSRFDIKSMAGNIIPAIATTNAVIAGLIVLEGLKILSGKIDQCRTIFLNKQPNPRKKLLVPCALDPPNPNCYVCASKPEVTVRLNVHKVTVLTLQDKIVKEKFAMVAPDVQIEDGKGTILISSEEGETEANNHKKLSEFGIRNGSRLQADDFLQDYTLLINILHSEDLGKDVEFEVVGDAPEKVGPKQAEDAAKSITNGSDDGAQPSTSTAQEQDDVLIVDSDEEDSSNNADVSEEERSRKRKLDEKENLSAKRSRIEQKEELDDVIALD
SUMO E1/E2, sequence (P63279 whole entry): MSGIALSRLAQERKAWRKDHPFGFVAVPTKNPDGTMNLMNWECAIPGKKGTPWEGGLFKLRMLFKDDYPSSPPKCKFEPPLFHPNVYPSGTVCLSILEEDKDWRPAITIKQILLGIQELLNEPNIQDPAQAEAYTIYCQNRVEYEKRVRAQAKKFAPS

Genome polyprotein = Genome polyprotein (dengue virus type 2, UniProt P29990); test: flavivirus cap methylation enzyme inhibition – biochemical, confirmation dose response, primary screen (AID 588689); type: functional
Genome polyprotein, sequence (P29990 2492-3391 limits assumed): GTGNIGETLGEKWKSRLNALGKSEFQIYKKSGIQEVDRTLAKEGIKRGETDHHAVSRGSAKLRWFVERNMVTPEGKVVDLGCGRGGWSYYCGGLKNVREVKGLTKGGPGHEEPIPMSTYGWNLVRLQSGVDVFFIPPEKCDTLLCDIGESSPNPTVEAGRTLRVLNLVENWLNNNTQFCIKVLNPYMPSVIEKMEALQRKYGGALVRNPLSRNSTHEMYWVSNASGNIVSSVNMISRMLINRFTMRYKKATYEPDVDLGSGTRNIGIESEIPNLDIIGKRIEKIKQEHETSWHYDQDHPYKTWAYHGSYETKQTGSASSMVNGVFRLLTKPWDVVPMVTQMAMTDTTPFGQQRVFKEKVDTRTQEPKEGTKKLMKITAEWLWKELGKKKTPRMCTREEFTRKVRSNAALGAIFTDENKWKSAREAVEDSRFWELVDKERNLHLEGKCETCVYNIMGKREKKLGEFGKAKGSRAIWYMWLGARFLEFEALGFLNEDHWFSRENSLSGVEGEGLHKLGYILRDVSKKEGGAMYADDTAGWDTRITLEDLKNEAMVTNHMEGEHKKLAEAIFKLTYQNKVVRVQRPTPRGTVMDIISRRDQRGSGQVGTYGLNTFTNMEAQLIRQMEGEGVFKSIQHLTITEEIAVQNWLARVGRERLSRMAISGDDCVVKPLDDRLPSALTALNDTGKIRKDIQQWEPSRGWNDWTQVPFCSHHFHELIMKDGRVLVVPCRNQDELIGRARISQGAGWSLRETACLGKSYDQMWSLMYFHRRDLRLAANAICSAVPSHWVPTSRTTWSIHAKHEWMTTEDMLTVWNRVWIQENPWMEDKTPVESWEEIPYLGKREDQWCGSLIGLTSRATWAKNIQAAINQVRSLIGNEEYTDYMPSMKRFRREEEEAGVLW

cells = type: functional
[16] = target: T7, Sentrin-specific protease 8; type: functional; remark: listed apart in the source
[17] = target: T8, Replicative DNA helicase DnaB (Mycobacterium tuberculosis, UniProt P9WMR3); test: DnaB intein splicing inhibitors, dose response, biochemical, cell-free fluorescence (AID 449749); type: functional
T8 sequence (P9WMR3 whole entry): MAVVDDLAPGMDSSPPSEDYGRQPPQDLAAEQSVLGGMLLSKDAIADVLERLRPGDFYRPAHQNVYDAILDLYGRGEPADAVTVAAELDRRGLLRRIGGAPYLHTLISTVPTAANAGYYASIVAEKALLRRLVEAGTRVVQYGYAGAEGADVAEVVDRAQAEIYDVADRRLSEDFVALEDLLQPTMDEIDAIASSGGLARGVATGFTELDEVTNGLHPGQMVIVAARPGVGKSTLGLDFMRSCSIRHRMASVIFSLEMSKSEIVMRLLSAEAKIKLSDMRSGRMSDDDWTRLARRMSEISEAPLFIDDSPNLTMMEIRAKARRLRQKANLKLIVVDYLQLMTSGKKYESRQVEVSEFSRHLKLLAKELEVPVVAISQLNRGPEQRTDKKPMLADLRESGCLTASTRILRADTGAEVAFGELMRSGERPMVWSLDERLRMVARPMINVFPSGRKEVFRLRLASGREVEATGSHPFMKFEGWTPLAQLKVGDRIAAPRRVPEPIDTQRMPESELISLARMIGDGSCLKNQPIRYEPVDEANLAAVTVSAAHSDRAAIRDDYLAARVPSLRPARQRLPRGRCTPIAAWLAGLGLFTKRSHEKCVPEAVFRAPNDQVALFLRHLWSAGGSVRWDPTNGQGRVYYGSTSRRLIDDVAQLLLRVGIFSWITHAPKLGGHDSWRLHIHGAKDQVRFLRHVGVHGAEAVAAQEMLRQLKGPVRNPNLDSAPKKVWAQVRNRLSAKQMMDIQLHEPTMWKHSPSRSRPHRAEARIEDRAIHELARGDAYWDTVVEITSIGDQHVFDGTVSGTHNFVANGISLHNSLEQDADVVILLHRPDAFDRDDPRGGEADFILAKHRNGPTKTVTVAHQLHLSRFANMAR

Cytochrome P450 3A4, sequence (P08684 whole entry): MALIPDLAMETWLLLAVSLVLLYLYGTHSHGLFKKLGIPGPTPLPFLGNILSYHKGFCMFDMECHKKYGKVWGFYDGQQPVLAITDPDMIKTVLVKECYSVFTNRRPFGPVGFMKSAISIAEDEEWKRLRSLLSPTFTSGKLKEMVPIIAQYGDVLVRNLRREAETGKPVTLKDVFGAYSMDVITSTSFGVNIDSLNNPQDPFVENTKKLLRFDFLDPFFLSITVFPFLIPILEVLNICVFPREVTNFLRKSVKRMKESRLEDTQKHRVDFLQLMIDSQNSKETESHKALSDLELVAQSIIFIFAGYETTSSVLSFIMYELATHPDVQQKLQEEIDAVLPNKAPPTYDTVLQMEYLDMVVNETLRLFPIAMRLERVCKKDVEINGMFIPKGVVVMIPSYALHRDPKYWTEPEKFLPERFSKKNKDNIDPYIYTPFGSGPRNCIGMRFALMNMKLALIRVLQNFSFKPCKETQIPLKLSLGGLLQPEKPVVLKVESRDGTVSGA
T1 sequence (P11712 whole entry): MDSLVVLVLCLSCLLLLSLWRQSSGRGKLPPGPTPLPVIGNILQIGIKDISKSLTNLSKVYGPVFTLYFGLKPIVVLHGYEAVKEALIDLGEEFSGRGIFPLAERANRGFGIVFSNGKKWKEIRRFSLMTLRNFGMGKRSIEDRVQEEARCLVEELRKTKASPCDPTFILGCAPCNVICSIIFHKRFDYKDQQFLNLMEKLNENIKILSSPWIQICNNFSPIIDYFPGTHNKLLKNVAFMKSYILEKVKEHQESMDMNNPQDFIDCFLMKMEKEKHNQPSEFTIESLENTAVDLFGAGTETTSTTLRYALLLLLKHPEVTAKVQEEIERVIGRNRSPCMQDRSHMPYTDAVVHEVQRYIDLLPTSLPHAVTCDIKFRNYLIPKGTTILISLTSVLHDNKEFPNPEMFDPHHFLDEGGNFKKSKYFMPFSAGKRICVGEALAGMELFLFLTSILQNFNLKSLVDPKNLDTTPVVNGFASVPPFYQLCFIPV

O=C(c1ccco1)N1CCC2(CC1)CCN(C(c1ccccc1)c1ccccc1)CC2
AC50 (Cytochrome P450 2C9 [1]): 39.8 µM (inconclusive) | AC50 (Cytochrome P450 3A4): inconclusive

Cc1noc(NS(=O)(=O)c2ccc(NC(=O)c3oc4ccc(Cl)cc4c3C)cc2)c1C
EC50 [2]: 8.14 µM (active) | AC50 [3]: 626 nM (active) | AC50 [4]: 10 µM (active) | EC50 (Streptococcus): 36.9 µM (active) | AC50 [5]: 6.88 µM (active)

Cc1c(N/C=C2/C(=O)N(C)C(=O)c3ccccc32)c(=O)n(-c2ccccc2)n1C
EC50 [6]: 56.4 µM (inactive) | EC50 [7]: > 120 µM (not active) | EC50 [8]: > 120 µM (not active) | EC50 [9]: > 300 µM (not active) | EC50 [10]: > 300 µM (inconclusive) | EC50 [11]: > 99 µM (inactive) | EC50 [12]: > 120 µM (not active)

CC(=O)OCc1nc2ccccc2s1
AC50 (Cytochrome P450 2C9 [13]): inconclusive | AC50 (Cytochrome P450 3A4): inconclusive | AC50 (Cytochrome P450 2C19): 25.1 µM (inconclusive)

Cc1cccc(-c2nc(Nc3ccc(O)cc3)c3ccccc3n2)c1
AC50 [5]: 1.1 µM (active)

COc1ccc(C(=O)Nc2nc(C)c(C(C)=O)s2)cc1S(=O)(=O)N1CCOCC1
EC50 [6]: > 99 µM (inactive) | EC50 [11]: > 99 µM (inactive)

CCn1c(=O)c(C(=O)NNS(=O)(=O)c2ccc(Br)cc2)c(O)c2ccccc21
IC50 [14]: > 67.6 µM (inactive) | IC50 (HEK293): > 67.6 µM (inactive)

Cn1cccc1/C=C1\SC(=O)N(c2ccc(O)cc2)C1=O
EC50 [6]: 29.2 µM (inactive) | EC50 [11]: > 99 µM (inactive)

CCOC(=O)CN1C(=O)Nc2ccc(Br)cc2C1c1ccccc1 (centres undefined)
AC50 (Cytochrome P450 3A4): inconclusive

Cc1n[nH]c(O)c1C(c1ccc(-c2ccc(F)cc2)o1)c1c(C)n[nH]c1O
EC50 (Protein RecA): 297 nM (active) | IC50 [15]: 12.3 µM (active) | IC50 (SUMO E1/E2): > 100 µM (inactive) | IC50 (Genome polyprotein): 58.1 µM (active) | IC50 (cells): 41.6 µM (active) | IC50 [16]: 14 µM (active) | AC50 [17]: 321 nM (active)

COc1ccc(-c2noc(-c3ccoc3C)n2)cc1
IC50 [14]: > 67.6 µM (inactive) | IC50 (HEK293): > 67.6 µM (inactive)
